Measurements: US20220016142A1, “COMBINATION THERAPY FOR TREATMENT OF CANCER” (PLUS VITECH, S.L., priority 2018, published 2022)

Test system: B16F10 cells (melanoma)
Assay: B16F10 melanoma tumor growth in mice (Example 2b)
Assay type: in vivo, C57BL/6J mice
Conditions: maropitant 30 mg/kg i.p. once a day, anti CTLA-4 5 mg/kg i.p. every other day, FIG. 5
Procedure: One Lewis Pulmonar Carcinoma cell line: 3LL; and one melanoma cell line: B16F10 (ATCC cell bank; LGC Standards); were used in this study. Both cell lines were maintained in culture in Dulbecco's modified Eagle's medium (DMEM) (Gibco, Thermo Fisher Scientific) supplemented with 10% foetal bovine serum (FBS) (Gibco, Thermo Fisher Scientific), 2 mM L-glutamine (Sigma-Aldrich, Merk) and Peni-Strep (50 U/ml and […]; Gibco, Thermo Fisher Scientific) in a humidified incubator at 37° C. and 5% CO2.
Cerenia® (maropitant citrate injectable solution; Zoetis US) was injected intraperitoneally at a dose of 30 mg/kg, once a day. […]
3LL cells (0.6×10^6 per mouse) or B16F10 cells (1×10^6 per mouse) were subcutaneously injected into the right flank of C57BL/6J mice (Charles River) with matrigel (Matrigel Membrane Matrix, Corning) at 50% v/v. Tumor growth was evaluated every 2/3 days. Animal vital parameters were monitored daily. […]
In order to evaluate the effect of Maropitant and anti CTLA-4 combination in vivo, B16F10 tumor-bearing mice were randomly assigned into four treatment groups as detailed in table 1 (n=6 mice per group) to receive either Maropitant 30 mg/kg, anti CTLA-4 5 mg/kg, the combination of both agents or the equivalent volume of vehicle. Tumor growth was recorded as detailed in Materials and Methods. […]

In the case of COc1ccc(C(C)(C)C)cc1CN[C@H]1C2CCN(CC2)[C@H]1C(c1ccccc1)c1ccccc1.O=C(O)CC(O)(CC(=O)O)C(=O)O [Maropitant, maropitant citrate], the “reduction in tumor growth compared to vehicle group” value (after 9 days of treatment) is reported as 28% and the “effect on growth of melanoma tumours (in words)” value (9 days) is reported as “inhibited the grown of melanoma tumours”.
